{"source": "PubChem BioAssay AID1053161", "about": "(Broad Institute, 2014)", "system": "HepG2 LDLR mRNA, qPCR, 6 h", "assay": "LDLR mRNA induction with sterol depletion, late-stage follow-up, mechanism study for Trib1 inducer project, cell-based, HepG2, RT-PCR, cherry-picked dose (AID 1053161)", "conditions": "active compounds read high"}
{"smiles": "CN1C(=O)c2cc(NC(=O)c3ccc(C(F)(F)F)cc3)ccc2OC[C@@H]2O[C@H](CC(=O)NC3Cc4ccccc4C3)CC[C@@H]21", "values": [{"measurement": "fold induction", "result": 2.5}]}
